Assay results: patent US20240398781A1, “SPIROCYCLIC CYCLIC MODULATORS OF CHOLESTEROL BIOSYNTHESIS AND THEIR USE FOR PROMOTING REMYELINATION” (GENENTECH, INC., priority 2021, published 2024)

Experiments:
human EBP = human EBP (Homo sapiens (Human), UniProt Q15125); test: Competition binding assay (SPA, [3H]-Ifenprodil) to determine compound affinity to EBP; conditions: [3H]-Ifenprodil 10 nM, HEK293 membrane overexpressing human EBP, Ki=IC50/(1+[L]/Kd); read-out: hEBP SPA Ki
Summary of the method: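 Membranes from HEK293 cells overexpressing human EBP, on SPA beads (0.3 mg beads, 5 µg membrane/well) in Tris/MgCl2/EDTA buffer pH 7.5 with 0.01% BSA and 0.1% DMSO, competed against [3H]-ifenprodil for 3 h to equilibrium. Compounds were tested at 1 µM single dose or 0.06 nM–5 µM; IC50 came from nonlinear fit, and Ki=IC50/(1+[L]/Kd).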

EpiSC-derived OPCs = test: In vitro phenotypic screening of OPCs (MBP staining, high-content imaging); type: cell-based, mouse; conditions: Mus musculus, 72 h, percentage of MBP+ oligodendrocytes, 3 days, 0.5 nM to 1000 nM; read-out: OPC EC50
Summary of the method: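 EpiSC-derived mouse OPCs seeded at 150,000/cm^2 on laminin in N2B27 without growth factors, treated 3 days at 37° C. with compound (8 points, 1000 nM to 0.5 nM). Fixed cells stained for MBP and DAPI and imaged; percentage of MBP+ oligodendrocytes fitted by Hill equation for EC50.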

Sequence of human EBP (Q15125 whole entry): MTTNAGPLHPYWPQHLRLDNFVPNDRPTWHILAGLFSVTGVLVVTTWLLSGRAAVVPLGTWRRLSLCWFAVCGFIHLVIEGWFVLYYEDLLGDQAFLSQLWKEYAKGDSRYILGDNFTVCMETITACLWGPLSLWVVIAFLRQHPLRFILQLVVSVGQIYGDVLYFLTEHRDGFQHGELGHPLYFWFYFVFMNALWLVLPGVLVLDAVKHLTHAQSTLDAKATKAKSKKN

Compound	Ki (human EBP)	EC50 (EpiSC-derived OPCs)
O=S1(=O)CC2(CCN([C@H]3CC[C@H](c4cc(C(F)(F)F)nn4C4CCC4)CC3)C2)C1 [Compound 23B, 6-((1r,4r)-4-(1-Cyclobutyl-3-(trifluoromethyl)-1H-pyrazol-5-yl)cyclohexyl)-2-thia-6-azaspiro[3.4]octane 2,2-dioxide]	0.021 µM	0.028 µM
O=S1(=O)CC2(CCN([C@H]3CC[C@H](c4cc(C(F)(F)F)n(C5CCC5)n4)CC3)C2)C1 [Compound 24, 6-((1r,4r)-4-(1-cyclobutyl-5-(trifluoromethyl)-1H-pyrazol-3-yl)cyclohexyl)-2-thia-6-azaspiro[3.4]octane 2,2-dioxide]	0.028 µM	0.006 µM
Cn1nc(C(F)(F)F)cc1[C@H]1CC[C@@H](N2CCC3(CC2)CS(=O)(=O)C3)CC1 [Compound 25A, 7-((1s,4s)-4-(1-Methyl-3-(trifluoromethyl)-1H-pyrazol-5-yl)cyclohexyl)-2-thia-7-azaspiro[3.5]nonane 2,2-dioxide]	0.11 µM	0.1 µM
Cn1nc(C(F)(F)F)cc1[C@H]1CC[C@H](N2CCC3(CC2)CS(=O)(=O)C3)CC1 [Compound 25B, 7-((1r,4r)-4-(1-methyl-3-(trifluoromethyl)-1H-pyrazol-5-yl)cyclohexyl)-2-thia-7-azaspiro[3.5]nonane 2,2-dioxide]	0.058 µM	0.087 µM
Cc1nc(C(F)(F)F)ccc1N1CCC(N2CCC3(C2)CS(=O)(=O)C3)CC1 [Compound 29, 6-(1-(2-methyl-6-(trifluoromethyl)pyridin-3-yl)piperidin-4-yl)-2-thia-6-azaspiro[3.4]octane 2,2-dioxide]	0.045 µM	0.039 µM
Cc1cc(F)cnc1N1CCC(N2CCC3(C2)CS(=O)(=O)C3)CC1 [Compound 31, 6-(1-(5-fluoro-3-methylpyridin-2-yl)piperidin-4-yl)-2-thia-6-azaspiro[3.4]octane 2,2-dioxide]	0.059 µM	0.19 µM
CC(C)n1nc(-c2cncc(OC(F)F)c2)cc1[C@H]1CC[C@H](N2CCC3(C2)CS(=O)(=O)C3)CC1 [Compound 33A, 6-((1r,4r)-4-(3-(5-(Difluoromethoxy)pyridin-3-yl)-1-isopropyl-1H-pyrazol-5-yl)cyclohexyl)-2-thia-6-azaspiro[3.4]octane 2,2-dioxide]	0.037 µM	0.029 µM
CC(C)n1nc(-c2cncc(OC(F)F)c2)cc1[C@H]1CC[C@@H](N2CCC3(C2)CS(=O)(=O)C3)CC1 [Compound 33B, (Cis)-6-(4-(3-(5-(Difluoromethoxy)pyridin-3-yl)-1-isopropyl-1H-pyrazol-5-yl)cyclohexyl)-2-thia-6-azaspiro[3.4]octane 2,2-dioxide]	0.033 µM	0.053 µM
CC(C)n1nc(N2CC(F)(F)C2)cc1[C@H]1CC[C@H](N2CCC3(C2)CS(=O)(=O)C3)CC1 [Compound 35, 6-((1r,4r)-4-(3-(3,3-Difluoroazetidin-1-yl)-1-isopropyl-1H-pyrazol-5-yl)cyclohexyl)-2-thia-6-azaspiro[3.4]octane 2,2-dioxide]	0.18 µM	0.21 µM
O=S1(=O)CC2(CCN([C@H]3CC[C@@H](c4cc(C(F)(F)F)nn4C4CC4)CC3)CC2)C1 [Compound 40A, 7-((1r,4r)-4-(1-cyclopropyl-3-(trifluoromethyl)-1H-pyrazol-5-yl)cyclohexyl)-2-thia-7-azaspiro[3.5]nonane 2,2-dioxide]	0.032 µM	0.022 µM

Other lines, results leading:

Ki (human EBP)	EC50 (EpiSC-derived OPCs)	Compound
0.026 µM	0.1 µM	O=S1(=O)CC2(CCN([C@H]3CC[C@@H](c4cc(C(F)(F)F)nn4C4CCC4)CC3)C2)C1 [Compound 23A, 6-((1s,4s)-4-(1-Cyclobutyl-3-(trifluoromethyl)-1H-pyrazol-5-yl)cyclohexyl)-2-thia-6-azaspiro[3.4]octane 2,2-dioxide]
0.033 µM	0.064 µM	Cc1cc(C(F)(F)F)ncc1N1CCC(N2CCC3(C2)CS(=O)(=O)C3)CC1 [Compound 28, 6-(1-(4-Methyl-6-(trifluoromethyl)pyridin-3-yl)piperidin-4-yl)-2-thia-6-azaspiro[3.4]octane 2,2-dioxide]
0.039 µM	0.01 µM	O=S1(=O)CC2(CCN(C3CCN(c4ncc(C(F)(F)F)cc4Cl)CC3)C2)C1 [Compound 30, 6-(1-(3-chloro-5-(trifluoromethyl)pyridin-2-yl)piperidin-4-yl)-2-thia-6-azaspiro[3.4]octane 2,2-dioxide]
0.024 µM	0.06 µM	O=S1(=O)CC2(CCN(C3CCN(c4ncc(C(F)(F)F)cc4F)CC3)C2)C1 [Compound 32, 6-(1-(3-fluoro-5-(trifluoromethyl)pyridin-2-yl)piperidin-4-yl)-2-thia-6-azaspiro[3.4]octane 2,2-dioxide]
0.047 µM	0.071 µM	O=S1(=O)CC2(CCN([C@H]3CC[C@H](c4cc(C(F)(F)F)nn4C4CC4)CC3)CC2)C1 [Compound 40B, 7-((1s,4s)-4-(1-cyclopropyl-3-(trifluoromethyl)-1H-pyrazol-5-yl)cyclohexyl)-2-thia-7-azaspiro[3.5]nonane 2,2-dioxide]
0.016 µM	0.02 µM	Cc1cc(C(F)(F)F)cnc1[C@H]1CC[C@H](N2CCC3(C2)CS(=O)(=O)C3)CC1 [Compound 47B, 6-((1r,4r)-4-(3-methyl-5-(trifluoromethyl)pyridin-2-yl)cyclohexyl)-2-thia-6-azaspiro[3.4]octane 2,2-dioxide]
